Reference: patent publication US20250018030A1, “PHARMACEUTICAL COMPOSITION FOR PROMOTING CANCER IMMUNOTHERAPY AND METHOD FOR PROMOTING CANCER IMMUNOTHERAPY” (China Medical University, priority 2023, published 2025)

Tests used:
[1] = test system: Tc1 cells; experiment: Metabolic assays (Seahorse ECAR/OCR, mitochondrial pyruvate and acetyl CoA) in Tc1 cells; format: cell-based, Mouse; settings: UK5099 40 μM added to genipin-treated Tc1 cells; FIG. 2G-2L
Procedure: The real-time extracellular acidification rate (ECAR) and oxygen consumption rate (OCR) were measured using a Seahorse XF24 analyzer (Seahorse Bioscience), within XF Glycolysis Stress and XF Cell Mito Stress Test kits used to assess glycolysis and oxidative phosphorylation. 5×10^5 cells exposed to the indicated treatments were plated in an XF-24 microplate coated with Cell-Tak (Corning) one day before the assay. ECAR and OCR were measured after metabolic manipulations by the addition of oligomycin, carbonyl cyanide-p-trifluoromethoxy-phenylhydrazone (FCCP), 2-deoxyglucose (2-DG) and rotenone/anti-mycin A (R/A). Calculations were conducted with Agilent Seahorse Wave Software for Agilent Seahorse XF analyzers (Seahorse Bioscience). For isolation of mitochondria, Tc1 cells were frozen and thawed to weaken the membranes and resuspended in Reagent A of a mitochondria isolation kit (ab110170, Abcam), before being homogenized and centrifuged at 1,000×g for 10 minutes at 4° C. Supernatant was saved (SN #1) and the pellet resuspended in Reagent B. After homogenization and centrifugation, supernatant was saved (SN #2). SN #1 and SN #2 were mixed thoroughly and centrifuged at 12,000×g for 15 minutes at 4° C. The pellet was collected in Reagent C supplemented with protease inhibitors and was used for the pyruvate and acetyl COA assays. Briefly, the mitochondrial pyruvate and acetyl CoA levels in the Tc1 cells were assessed using a commercial Pyruvate Assay Kit (ab65342, Abcam) and PicoProbe Acetyl COA Assay Kit (ab87546, Abcam) according to the manufacturer's instructions.

[2] = test system: Tc1 cells; experiment: Intracellular cytokine staining / flow cytometry of genipin-treated skewed Tc1 cells; format: cell-based, Mouse; settings: added to genipin-treated Tc1 cells; FIG. 2R-2S
Procedure: Mouse lymph nodes and spleens were harvested, and naïve CD4 or CD8 T cells isolated via magnetic bead separation (STEMCELL Technologies) and activated in α-CD3 (10 μg/ml) and α-CD28 (1 μg/ml) pre-coated 96-well plates. Skewing conditions were as follows: Th1 cells/Tc1 cells ([…] 10 μ/ml α-IL-4), Th2 cells/Tc2 cells (20 ng/ml IL-4 and 10 μ/ml α-IFN-γ), Th17 cells/Tc17 cells (20 ng/ml IL-6, 1.25 ng/ml […], 20 ng/ml IL-1β, 20 ng/ml IL-23, 10 μg/ml α-IFN-γ and 10 μg/ml α-IL-4), and Treg cells (5 ng/ml TGF-β, 10 μg/ml α-IFN-γ and 10 μg/ml α-IL-4) in the indicated medium. Cells were cultured for 4-5 days followed by treatment with genipin (3.125 μM, 6.25 μM, 12.5 μM) or DMSO for 12-16 hours.
Monoclonal antibodies were purchased from BD Biosciences or eBioscience. For intracellular cytokine staining (ICS), cells were first restimulated by PMA/ionomycin for 5 hours in the presence of GolgiStop (BD Biosciences), followed by surface epitope staining markers before being fixed/permeabilized (BD Cytofix/Cytoperm™) and stained with antibodies targeting intracellular antigens. Cells were finally fixed with 1.5% formaldehyde for 10 minutes at room temperature and analyzed on a FACSVerse flow cytometer (BD Bioscience). Data were analyzed using FlowJo software (Tree Star Inc.).

## N#C/C(=C\c1cn(-c2ccccc2)c2ccccc12)C(=O)O [UK5099]
[1]
  Genipin-driven Tc1 effects (mitochondrial acetyl CoA, mitochondrial pyruvate, histone H3 acetylation, H3K9 acetylation, OCR, IFN-γ), effect of added inhibitor: could be reversed
[2]
  T-bet expression in genipin-treated (UCP2-deprived) Tc1 cells, effect of added inhibitor: blocked the positive regulation of T-bet
